System: human endometrial cancer cell line MFE-280
Assay: Measurement of antitumor effect in MFE-280 cancer-bearing mice
Format: in vivo
Details: 200 mg/kg, orally once daily, MFE-280 subcutaneous xenograft in BALB/c nude mice, 11th day after start of administration

Question: With `CCS(=O)(=O)c1ccc(Cl)cc1Cn1c(=O)[nH]c2c(Cl)c(CN3CCNCC3)c(C(F)(F)F)cc2c1=O` [Compound F-1, 8-Chloro-3-(5-chloro-2-ethanesulfonyl-benzyl)-7-piperazin-1-ylmethyl-6-trifluoromethyl-1H-quinazoline-2,4-dione] as the compound, how does the “Antitumor effect TGI after 11 days (%)” value read?
Answer: 61%

From patent US9567304B2, “Quinazolinedione derivative” (Chugai Seiyaku Kabushiki Kaisha, priority 2012, dated 2017)
